Values joined by “and” are separate entries in the source; they are usually repeats but may differ in a detail not shown here. Identical values can stand only once. Like-named read-outs stand apart in the source and are kept apart here. Marks after values point to notes of the source that are not given here.
Legend:
streptavidin (SAV) [1] = molecular target: T1, streptavidin (SAV) (Streptomyces avidinii, UniProt P22629); details: SAV-B7, cited from earlier work
T1 construct: purchased Sigma Aldrich (St. Louis, MO)

avidin (AV) [2] = molecular target: T2, avidin (AV) (Gallus gallus, UniProt P02701); details: cited from earlier work; for ΔG° ^ǂ, Backward / ΔS° ^ǂ, Backward: calculated from the plotted data; for Ea^Backward: ref 18
T2 construct: purchased Calbiochem (La Jolla, CA)

streptavidin (SAV) [3] = molecular target: T1, streptavidin (SAV); details: cited from earlier work
avidin (AV) [4] = molecular target: T2, avidin (AV); details: AV-B7, cited from earlier work
streptavidin (SAV) [5] = molecular target: T1, streptavidin (SAV); test: Literature calorimetry reaction thermodynamics; assay type: binding; details: SAV-B7, average of the reported values
streptavidin (SAV) [6] = molecular target: T1, streptavidin (SAV); test: Literature kinetics, affinity and dissociation (backward) activation parameters; assay type: binding; details: SAV-B7, average of the reported values
avidin (AV) [7] = molecular target: T2, avidin (AV); test: Literature calorimetry reaction thermodynamics; assay type: binding; details: AV-B7, average of the reported values
streptavidin (SAV) [8] = molecular target: T1, streptavidin (SAV); test: Absorbance and fluorescence emission spectra, SAV complex; assay type: physicochemical
Method: The lifetimes (τ), steady state anisotropies (rss), time-resolved anisotropies (rt) and quantum yields (QY) of the complexes (at 20 ± 0.1°C and pH 8) were collected with a dye-labeled B7 probe concentration of 20–40 nM and 1040–2080 nM of either protein (AV or SAV) to ensure that only one binding site in the tetramer was filled with a ligand (AB1 filling model).
The QY values were obtained by using a reference fluorophore of known quantum yield and were calculated according to Parker and Rees, where the reference dye was fluorescein in 0.1N sodium hydroxide solution [46]. The emission fluorescence scans were collected from 480 nm to 700 nm with the excitation light set at 460 nm provided by the xenon arc lamp described above. These measurements were made on the AB1 complexes at high protein concentration.
Supplementary file pone.0204194.s001.docx: S1 Fig Absorbance spectra of dye-labeled B7 probes and respective complexes with AV and SAV. […] The spectra are normalized to the calculated molar absorptivies. The distortion of the SAV-BFl absorbance spectrum (B panel) is caused by the presence of Fl^2- and Fl^1-. The labeled probes and protein concentrations were 1 μM and 10 μM, respectively. (DOCX) Click here for additional data file.
Supplementary file pone.0204194.s002.docx: S2 Fig Fluorescence emission spectra of dye-labeled B7 and respective complexes with AV and SAV. […] The probe and protein concentrations were 20 nM and 1040 nM (AB1 filling model), respectively. (DOCX) Click here for additional data file.

[9] = SAV complex, mono-ionic fluorescein species

T2 sequence (P02701 25-152): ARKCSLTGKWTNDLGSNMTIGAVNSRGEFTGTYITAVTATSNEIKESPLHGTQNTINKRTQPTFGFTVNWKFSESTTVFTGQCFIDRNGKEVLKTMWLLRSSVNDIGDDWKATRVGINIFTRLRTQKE
T1 sequence (P22629 25-183): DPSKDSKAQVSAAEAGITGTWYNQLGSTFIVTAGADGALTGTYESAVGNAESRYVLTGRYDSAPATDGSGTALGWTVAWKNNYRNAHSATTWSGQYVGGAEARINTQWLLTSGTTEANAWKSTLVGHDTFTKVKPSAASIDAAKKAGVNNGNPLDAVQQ

Structure (SMILES): O=C(O)CCCC[C@@H]1SC[C@@H]2NC(=O)N[C@@H]21 [B7, d-biotin]
- ΔH°rxn (streptavidin (SAV) [1]; ref 19): -26.7 19 kcal/mol
- ΔH°rxn (streptavidin (SAV) [1]; ref 19, listed as B): -26.7 6 kcal/mol
- ΔG°rxn (streptavidin (SAV) [1]; ref 39): -18.1 kcal/mol and -18.1 36 kcal/mol
- ΔH°rxn (streptavidin (SAV) [1]; ref 39): -24.5 kcal/mol and -24.5 36 kcal/mol
- ΔS°rxn (streptavidin (SAV) [1]; ref 39): -21.0 [39] cal/mol°K and -21.0 36 cal/mol°K
- ΔG°rxn (streptavidin (SAV) [1]; ref 39, listed as B): -18.1 20 kcal/mol
- ΔH°rxn (streptavidin (SAV) [1]; ref 39, listed as B): -24.5 20 kcal/mol
- ΔS°rxn (streptavidin (SAV) [1]; ref 39, listed as B): -21.0 20 cal/mol°K
- ΔH°rxn (streptavidin (SAV) [1]; ref 79): -23.0 kcal/mol and -23.0 72 kcal/mol
- ΔH°rxn (streptavidin (SAV) [1]; ref 79, listed as B): -23.0 50 kcal/mol
- ΔH°rxn (streptavidin (SAV) [1]; ref 80): -24.9 ± 0.4 kcal/mol and -24.9 ± 0.4 80 kcal/mol
- ΔH°rxn (streptavidin (SAV) [1]; ref 80, listed as B): -24.9 ± 0.4 53 kcal/mol
- ΔG°rxn (streptavidin (SAV) [1]; ref 83, 84): -18.3 kcal/mol and -18.3 83,84 kcal/mol
- ΔG°rxn (streptavidin (SAV) [1]; ref 83, 84, listed as B): -18.3 54, 57 kcal/mol
- ΔG° ^ǂ, Backward (avidin (AV) [2]; AV-B7): 24.7 ± 2.0 [18]^e kcal/mol and 24.7 kcal/mol
- ΔS° ^ǂ, Backward (avidin (AV) [2]; AV-B7): 43.0 ± 2.0 [18]^e cal/mol°K and 43 cal/mol°K
- ΔG° ^ǂ, Backward (avidin (AV) [2]; AV-B7, listed as B): 24.7 ± 1.0 6,a kcal/mol
- ΔS° ^ǂ, Backward (avidin (AV) [2]; AV-B7, listed as B): 43.0 ± 2.0 6,a cal/mol°K
- Ea^Backward (avidin (AV) [2]; AV-B7): 37.6 ± 2.0 [18] kcal/mol and 37.6 kcal/mol
- Ea^Backward (avidin (AV) [2]; AV-B7, listed as B): 37.6 ± 1.0 6,a kcal/mol
- koff replacement (avidin (AV) [2]; AV-B7, ref 35): 9e-08 s⁻¹
- kon (avidin (AV) [2]; Surface Plasmon Resonance, 20°C, pH 7.4 in HEPES buffer): 2.0 ± 0.3 × 10^6 M^-1s^-1
- half-life of the AV-B7 complex (avidin (AV) [2]): 90 days
- kon (avidin (AV) [2]; pH 5 and 25°C, 14C-biotin quenching experiment): 7e+07 M⁻¹ s⁻¹
- ΔG° ^ǂ, Backward (streptavidin (SAV) [3]; SAV-B7, calculated at 25°C): 24.8 ± 0.3 kcal/mol and 24.8 ± 0.3 80,f kcal/mol
- ΔG° ^ǂ, Backward (streptavidin (SAV) [3]; SAV-B7, calculated at 25°C, listed as B): 24.8 ± 0.3 53,b kcal/mol
- ΔS° ^ǂ, Backward (streptavidin (SAV) [3]; SAV-B7, calculated from the plotted data): 29.9 ± 2.0 cal/mol°K and 29.9 ± 2.0 18 e cal/mol°K
- ΔS° ^ǂ, Backward (streptavidin (SAV) [3]; SAV-B7, calculated from the plotted data, listed as B): 29.9 ± 2.0 6,a cal/mol°K
- ΔS° ^ǂ, Backward (streptavidin (SAV) [3]; SAV-B7, ref 39, 80, 82): 18.8 ± 0.3 cal/mol°K and 18.8 ± 0.3 36,80,81 cal/mol°K
- ΔS° ^ǂ, Backward (streptavidin (SAV) [3]; SAV-B7, ref 39, 80, 82, listed as B): 18.8 ± 0.3 20, 53, 55 cal/mol°K
- Ea^Backward (streptavidin (SAV) [3]; SAV-B7, ref 39, 80): 30.4 ± 0.2 kcal/mol and 30.4 ± 0.2 36,80 kcal/mol
- Ea^Backward (streptavidin (SAV) [3]; SAV-B7, ref 39, 80, listed as B): 30.4 ± 0.2 20, 53 kcal/mol
- ΔG° ^ǂ, Backward (streptavidin (SAV) [3]; SAV-B7, ref 39, 82): 24.6 ± 0.3 kcal/mol and 24.6 ± 0.3 36,81 kcal/mol
- ΔG° ^ǂ, Backward (streptavidin (SAV) [3]; SAV-B7, ref 39, 82, listed as B): 24.6 ± 0.3 20, 55 kcal/mol
- ΔG° ^ǂ, Backward (streptavidin (SAV) [3]; SAV-B7, ref 47): 21.4 ± 2.0 kcal/mol and 21.4 ± 2.0 44 kcal/mol
- ΔG° ^ǂ, Backward (streptavidin (SAV) [3]; SAV-B7, ref 47, listed as B): 21.4 ± 1.0 6 kcal/mol
- koff replacement (streptavidin (SAV) [3]; SAV-B7, ref 68): 2.4e-06 s⁻¹
- Ea^Backward (streptavidin (SAV) [3]; SAV-B7, ref 81): 32.0 kcal/mol and 32 kcal/mol
- ΔS° ^ǂ, Backward (streptavidin (SAV) [3]; SAV-B7, ref 81): 25.8 cal/mol°K and 25.8 82 cal/mol°K
- Ea^Backward (streptavidin (SAV) [3]; SAV-B7, ref 81, listed as B): 32.0 56 kcal/mol
- ΔS° ^ǂ, Backward (streptavidin (SAV) [3]; SAV-B7, ref 81, listed as B): 25.8 56 cal/mol°K
- Ea^Backward (streptavidin (SAV) [3]; SAV-B7, ref 82): 25.8 ± 1.2 kcal/mol and 25.8 ± 1.2 81 kcal/mol
- Ea^Backward (streptavidin (SAV) [3]; SAV-B7, ref 82, listed as B): 25.8 ± 1.2 55 kcal/mol
- kon (streptavidin (SAV) [3]; SPR, immobilized B7, 4°C): 5.1e+06 M⁻¹ s⁻¹
- kon (streptavidin (SAV) [3]; stopped-flow, tryptophan fluorescence quenching, 25°C and pH 7): 7.5 ± 0.6 × 10^7 M^-1s^-1
- ΔH°rxn (avidin (AV) [4]; ref 39): -26.7 kcal/mol and -26.7 36 kcal/mol
- ΔH°rxn (avidin (AV) [4]; ref 39, listed as B): -26.7 20 kcal/mol
- ΔG°rxn (avidin (AV) [4]; ref 76): -20.5 kcal/mol and -20.5 77 kcal/mol
- ΔH°rxn (avidin (AV) [4]; ref 76): -20.3 ± 0.3 kcal/mol and -20.3 ± 0.377 kcal/mol
- ΔG°rxn (avidin (AV) [4]; ref 76, listed as B): -20.5 50 kcal/mol
- ΔH°rxn (avidin (AV) [4]; ref 76, listed as B): -20.3 ± 0.3 50 kcal/mol
- ΔH°rxn (avidin (AV) [4]; ref 77): -22.5 ± 0.1 kcal/mol and -22.5 ± 0.1 78 kcal/mol
- ΔH°rxn (avidin (AV) [4]; ref 77, listed as B): -22.5 ± 0.1 52 kcal/mol
- ΔG°rxn (avidin (AV) [4]; ref 78): -20.8 kcal/mol and -20.8 79 kcal/mol
- ΔH°rxn (avidin (AV) [4]; ref 78): -23.4 ± 0.3 kcal/mol and -23.4 ± 0.3 79 kcal/mol
- ΔS°rxn (avidin (AV) [4]; ref 78): -8.9 [78] cal/mol°K and -8.9 79 cal/mol°K
- ΔG°rxn (avidin (AV) [4]; ref 78, listed as B): -20.8 51 kcal/mol
- ΔH°rxn (avidin (AV) [4]; ref 78, listed as B): -23.4 ± 0.3 51 kcal/mol
- ΔS°rxn (avidin (AV) [4]; ref 78, listed as B): -8.9 51 cal/mol°K
- ΔG°rxn, averaged value (streptavidin (SAV) [5]): -18.2 ± 0.2 kcal/mol
- ΔH°rxn, averaged value (streptavidin (SAV) [5]): -24.8 ± 2.0 kcal/mol
- ΔG°rxn, averaged value (streptavidin (SAV) [5]; listed as B): -18.2 ± 0.1 kcal/mol
- Ea^Backward, averaged value (streptavidin (SAV) [6]): 29.4 ± 2.6 kcal/mol and 29.4 kcal/mol
- ΔG° ^ǂ, Backward, averaged value (streptavidin (SAV) [6]): 23.6 ± 1.5 kcal/mol and 23.6 kcal/mol
- ΔS° ^ǂ, Backward, averaged value (streptavidin (SAV) [6]): 24.8 ± 4.5 cal/mol°K and 24.8 cal/mol°K
- ΔG° ^ǂ, Backward, averaged value (streptavidin (SAV) [6]; listed as B): 23.6 ± 1.0 kcal/mol
- ΔS° ^ǂ, Backward, averaged value (streptavidin (SAV) [6]; listed as B): 24.8 ± 2.5 cal/mol°K
- ΔG°rxn, averaged value (avidin (AV) [7]): -20.7 ± 0.3 kcal/mol
- ΔH°rxn, averaged value (avidin (AV) [7]): -23.2 ± 1.7^d kcal/mol and -23.2 ± 1.7 d kcal/mol
- ΔG°rxn, averaged value (avidin (AV) [7]; listed as B): -20.7 ± 1.0 kcal/mol
- ΔH°rxn, averaged value (avidin (AV) [7]; listed as B): -23.2 ± 1.0 kcal/mol

Structure (SMILES): O=C(CCCC[C@@H]1SC[C@@H]2NC(=O)N[C@@H]21)NCCNC(=O)c1ccc(-c2c3ccc(=O)cc-3oc3cc(O)ccc23)c(C(=O)O)c1 [BFl, Biotin-4-fluorescein]
- Maximum Absorbance (streptavidin (SAV) [8]; SAV complex, di-ionic fluorescein species): 494 nm
- Maximum Absorbance (streptavidin (SAV) [8]; [9]): 472 nm
- Maximum Emission (streptavidin (SAV) [8]; [9]): 515 nm
- Emission (nm) (streptavidin (SAV) [8]; complex with SAV): 524 nm
